Experiments:
MDA-MB-231 = assay: Tumor growth inhibition in xenograft model; assay type: in vivo, NSG mice
Experimental: Three human tumor cell lines, NCI-H441, MDA-MB-231, and SNU-5, were selected for use in tumor xenograft studies using athymic nude, NSG and CB.17 SCID mice, respectively. Pharmacodynamic modulation of MET phosphorylation was also measured in the NCI-H441 and SNU-5 xenografts. Tumor-bearing mice were orally dosed once-daily for 14 days (qd×14), and the tumors were resected and processed for MET phosphorylation analysis by Western blot. […]

CYP 2B6 = CYP 2B6 (Homo sapiens, UniProt P20813); assay: Cytochrome P450 inhibition in vitro; assay type: in vitro ADME; details: low CYP inhibition potential
Experimental: (§1) Plasma PK of Compound 1 was characterized in rats and beagle dogs. Toxicokinetic (TK) evaluations of oral Compound 1 were evaluated in repeat-dose studies in rats and dogs. Plasma protein binding was determined in mouse, rat, dog, monkey, and human plasma in vitro. Biotransformation and metabolite profiling of Compound 1 were investigated in vitro using mouse, rat, dog, monkey, and human liver microsomal fractions and hepatocytes and in vivo in rats and dogs. P-glycoprotein (P-gp) and breast cancer resistance protein (BCRP) transporter interaction studies, in vitro experiments evaluating cytochrome P450 (CYP) induction and inhibition by Compound 1, and CYP and glucuronosyltransferase (UGT) substrate specificity studies of Compound 1 were also performed.

CYP1A2 = CYP1A2 (Homo sapiens, UniProt P05177); assay: Cytochrome P450 inhibition in vitro; assay type: in vitro ADME; details: low CYP inhibition potential
Experimental: as §1

CYP2C19 = CYP2C19 (Homo sapiens, UniProt P33261); assay: Cytochrome P450 inhibition in vitro; assay type: in vitro ADME
Experimental: as §1

CYP2C8 = CYP2C8 (Homo sapiens, UniProt P10632); assay: Cytochrome P450 inhibition in vitro; assay type: in vitro ADME
Experimental: as §1

CYP2C9 = CYP2C9 (Homo sapiens, UniProt P11712); assay: Cytochrome P450 inhibition in vitro; assay type: in vitro ADME
Experimental: as §1

CYP2D6 = CYP2D6 (Homo sapiens, UniProt P10635); assay: Cytochrome P450 inhibition in vitro; assay type: in vitro ADME; details: low CYP inhibition potential
Experimental: as §1

CYP3A4 [1] = biological target: CYP3A4 (Homo sapiens, UniProt P08684); assay: Cytochrome P450 inhibition in vitro; assay type: in vitro ADME
Experimental: as §1

CYP3A4 [2] = assay: Cytochrome P450 induction (mRNA levels) in fresh primary human hepatocytes; assay type: in vitro ADME
bacterial = assay: In vitro bacterial genotoxicity bioassay; assay type: cell-based
Experimental: (§2) The nonclinical toxicity of Compound 1 was characterized in dose range-finding 7-day and definitive 28-day repeat-dose studies in rats and dogs, and in in vitro bacterial and mammalian genotoxicity bioassays. Compound 1 was also evaluated in definitive neurobehavioral, respiratory and cardiovascular safety pharmacology studies.
(§3) Compound 1 was negative in in vitro bacterial and mammalian cell genotoxicity bioassays.

mammalian cell = assay: In vitro mammalian cell genotoxicity bioassay; assay type: cell-based
Experimental: as §2, §3

[3] = GLP safety pharmacology: neurobehavioral and respiratory; assay type: in vivo, rats; details: single oral doses as high as 60 mg/kg; within 24 hours postdose
Experimental: as §2

advanced solid tumors = assay: Phase 1 first-in-human Study Compound 1-001 (NCT03845166): safety (DLT, adverse events) and preliminary clinical activity; assay type: in vivo
Excerpt: The maximum tolerated dose (MTD) and/or recommended dose (RD) of Compound 1 single-agent therapy and ICI combination therapy will be determined in a Dose-Escalation Stage. The preliminary efficacy of Compound 1 as single agent and as ICI combination therapy will be determined in a Cohort-Expansion Stage with tumor-specific expansion cohorts. As of 14 Dec. 2020, dose escalation of Compound 1 as single agent and in combination therapy with atezolizumab was ongoing: 19 subjects were enrolled in single agent cohorts across six dose levels (PIB: 10, 20 mg; Tablet: 20, 40, 80, 140 mg); three subjects were enrolled in combination therapy with atezolizumab at one dose level (Compound 1 40 mg po qd plus atezolizumab 1200 mg IV q3w). As of 14 Dec. […] The majority of reported adverse events (AEs) were of low-grade severity (Grade 1-2) with five subjects having experienced treatment-related Grade 3 events.
In the Compound 1 single-agent dose-escalation cohorts, study drug will be administered qd for the first 28 days, which comprises the Dose-Limiting Toxicity (DLT) Evaluation Period. At the end of the 28-day DLT period, the Cohort Review Committee will review all available safety and PK data for cohorts containing at least 3 subjects and dose escalation to the next cohort may proceed if 0 out of 3 subjects or […] subjects experience(s) a DLT (as defined below). Dose escalation to the next cohort will not exceed a doubling of the Compound 1 dose; however, the Cohort Review Committee may decide to institute a less-than-doubling escalation between cohorts based on evaluation of safety and PK results from the current and previous cohorts.
Dose-limiting toxicity is defined as any of the following treatment-emergent AEs occurring during the DLT Evaluation Period for Compound 1 as single-agent therapy: • Any treatment-emergent AE that in the opinion of the Cohort Review Committee is of potential clinical significance such that further dose escalation of Compound 1 would expose subjects to unacceptable risk • Non-hematologic toxicity: treatment-emergent […] AEs • The following hematologic toxicities that are treatment-emergent: • Grade 3 thrombocytopenia with clinically significant bleeding • Grade 4 thrombocytopenia • Grade 4 neutropenia of 4 days duration • Grade 3 neutropenia of any duration with fever (single temperature of ≥38.3° C. [101.0° F.] or sustained temperature of ≥38.0° C. [100.4° F.] for ≥1 hour) or documented infection • Grade 4 anemia • Inability to take 75% of the total planned Compound 1 dose for the DLT Evaluation Period because of a treatment-emergent AE leading to a dose reduction and/or interruption • Any AE experienced during the DLT Evaluation Period that results in permanent discontinuation of Compound 1 For subjects receiving Compound 1 as combination therapy with atezolizumab or avelumab, the above in addition to the following are defined as DLTs: • Any related Grade 3 AE which is unexpected in severity and/or duration compared with the known safety profiles of Compound 1 and atezolizumab or avelumab when used as single agents, and that cannot be managed by dose modification (reduction or interruption) and adequate supportive care, and requires permanent discontinuation of Compound 1 and/or atezolizumab or avelumab. • Any AE experienced during the DLT Evaluation Period that results in permanent discontinuation of Compound 1 and/or atezolizumab or avelumab Note: AEs are presumed attributable to study drug. […]

Sequence of CYP3A4 (Homo sapiens, UniProt P08684) (P08684 whole entry): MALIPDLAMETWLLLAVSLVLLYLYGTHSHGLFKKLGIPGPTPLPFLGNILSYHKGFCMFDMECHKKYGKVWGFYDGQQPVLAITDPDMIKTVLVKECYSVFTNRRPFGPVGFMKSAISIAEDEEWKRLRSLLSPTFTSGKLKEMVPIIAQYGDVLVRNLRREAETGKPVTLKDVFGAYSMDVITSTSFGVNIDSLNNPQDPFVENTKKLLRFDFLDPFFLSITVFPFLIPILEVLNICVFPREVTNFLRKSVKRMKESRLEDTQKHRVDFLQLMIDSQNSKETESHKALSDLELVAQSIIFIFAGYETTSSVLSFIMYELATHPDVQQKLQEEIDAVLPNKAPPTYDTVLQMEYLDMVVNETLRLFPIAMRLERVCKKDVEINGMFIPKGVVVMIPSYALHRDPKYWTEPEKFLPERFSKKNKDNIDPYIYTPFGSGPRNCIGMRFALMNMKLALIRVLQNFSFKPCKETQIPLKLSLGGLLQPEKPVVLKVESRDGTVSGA
Sequence of CYP2C9 (P11712 whole entry): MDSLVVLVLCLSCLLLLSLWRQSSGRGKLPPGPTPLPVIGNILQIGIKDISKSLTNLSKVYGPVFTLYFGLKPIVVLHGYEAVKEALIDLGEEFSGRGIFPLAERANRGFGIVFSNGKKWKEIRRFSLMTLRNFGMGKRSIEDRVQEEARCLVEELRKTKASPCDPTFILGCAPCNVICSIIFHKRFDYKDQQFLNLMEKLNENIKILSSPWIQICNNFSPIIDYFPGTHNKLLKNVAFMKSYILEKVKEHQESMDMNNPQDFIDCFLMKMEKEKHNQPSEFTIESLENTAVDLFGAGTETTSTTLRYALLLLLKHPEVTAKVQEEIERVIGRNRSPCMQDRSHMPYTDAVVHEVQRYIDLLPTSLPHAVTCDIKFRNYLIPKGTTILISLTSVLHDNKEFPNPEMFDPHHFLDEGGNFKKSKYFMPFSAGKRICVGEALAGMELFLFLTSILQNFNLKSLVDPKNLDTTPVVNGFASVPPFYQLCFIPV
Sequence of CYP1A2 (P05177 whole entry): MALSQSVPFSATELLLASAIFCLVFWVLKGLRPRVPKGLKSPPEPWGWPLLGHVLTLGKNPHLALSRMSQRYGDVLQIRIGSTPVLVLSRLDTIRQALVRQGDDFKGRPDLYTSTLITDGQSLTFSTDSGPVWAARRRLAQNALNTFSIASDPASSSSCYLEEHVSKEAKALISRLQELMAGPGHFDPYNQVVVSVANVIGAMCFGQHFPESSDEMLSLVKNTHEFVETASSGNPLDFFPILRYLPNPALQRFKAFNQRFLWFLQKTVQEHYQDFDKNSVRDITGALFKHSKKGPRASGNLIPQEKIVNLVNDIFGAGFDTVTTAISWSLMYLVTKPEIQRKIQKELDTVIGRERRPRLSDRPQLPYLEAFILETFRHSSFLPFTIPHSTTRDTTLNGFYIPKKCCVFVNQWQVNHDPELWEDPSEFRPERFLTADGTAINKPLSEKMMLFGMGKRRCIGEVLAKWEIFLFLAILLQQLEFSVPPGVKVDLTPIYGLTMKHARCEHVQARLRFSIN
Sequence of CYP2C8 (P10632 whole entry): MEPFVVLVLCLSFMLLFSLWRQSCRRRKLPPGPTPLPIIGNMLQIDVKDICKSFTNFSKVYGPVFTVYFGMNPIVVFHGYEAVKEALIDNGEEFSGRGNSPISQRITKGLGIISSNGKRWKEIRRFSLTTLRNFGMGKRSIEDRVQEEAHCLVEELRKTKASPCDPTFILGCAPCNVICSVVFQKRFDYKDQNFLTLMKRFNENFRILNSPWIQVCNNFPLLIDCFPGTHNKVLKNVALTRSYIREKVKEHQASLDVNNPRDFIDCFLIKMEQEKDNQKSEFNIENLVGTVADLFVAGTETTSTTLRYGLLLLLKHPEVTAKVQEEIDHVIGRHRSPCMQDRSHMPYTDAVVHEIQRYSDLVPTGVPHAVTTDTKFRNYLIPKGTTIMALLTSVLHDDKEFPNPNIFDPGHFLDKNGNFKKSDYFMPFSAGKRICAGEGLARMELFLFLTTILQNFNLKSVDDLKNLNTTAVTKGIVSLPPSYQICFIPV
Sequence of CYP2C19 (P33261 whole entry): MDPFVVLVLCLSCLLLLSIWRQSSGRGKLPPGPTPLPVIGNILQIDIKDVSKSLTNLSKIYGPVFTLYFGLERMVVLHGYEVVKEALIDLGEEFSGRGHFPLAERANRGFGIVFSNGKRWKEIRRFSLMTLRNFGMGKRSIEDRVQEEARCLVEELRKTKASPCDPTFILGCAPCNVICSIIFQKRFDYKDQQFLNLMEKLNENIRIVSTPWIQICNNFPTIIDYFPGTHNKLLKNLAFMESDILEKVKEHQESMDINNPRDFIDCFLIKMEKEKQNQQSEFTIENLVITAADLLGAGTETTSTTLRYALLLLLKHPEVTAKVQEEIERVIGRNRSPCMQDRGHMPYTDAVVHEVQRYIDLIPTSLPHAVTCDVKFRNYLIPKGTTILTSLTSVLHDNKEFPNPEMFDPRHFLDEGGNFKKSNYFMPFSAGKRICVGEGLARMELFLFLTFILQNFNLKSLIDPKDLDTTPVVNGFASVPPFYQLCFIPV
Sequence of CYP2D6 (P10635 whole entry): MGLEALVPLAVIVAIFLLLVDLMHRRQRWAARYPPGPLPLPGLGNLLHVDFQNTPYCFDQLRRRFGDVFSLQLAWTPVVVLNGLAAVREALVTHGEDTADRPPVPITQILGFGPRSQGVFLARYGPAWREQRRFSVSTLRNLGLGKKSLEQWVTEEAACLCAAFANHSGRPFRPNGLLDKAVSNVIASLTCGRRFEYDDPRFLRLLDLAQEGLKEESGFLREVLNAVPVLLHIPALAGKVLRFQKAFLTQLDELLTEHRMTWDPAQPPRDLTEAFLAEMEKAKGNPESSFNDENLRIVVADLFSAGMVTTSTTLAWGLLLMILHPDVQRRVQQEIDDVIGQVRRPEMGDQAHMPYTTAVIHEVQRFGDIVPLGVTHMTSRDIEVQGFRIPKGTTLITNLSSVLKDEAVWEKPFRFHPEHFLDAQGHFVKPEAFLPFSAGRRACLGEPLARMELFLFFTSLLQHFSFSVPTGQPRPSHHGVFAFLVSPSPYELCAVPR
Sequence of CYP 2B6 (P20813 whole entry): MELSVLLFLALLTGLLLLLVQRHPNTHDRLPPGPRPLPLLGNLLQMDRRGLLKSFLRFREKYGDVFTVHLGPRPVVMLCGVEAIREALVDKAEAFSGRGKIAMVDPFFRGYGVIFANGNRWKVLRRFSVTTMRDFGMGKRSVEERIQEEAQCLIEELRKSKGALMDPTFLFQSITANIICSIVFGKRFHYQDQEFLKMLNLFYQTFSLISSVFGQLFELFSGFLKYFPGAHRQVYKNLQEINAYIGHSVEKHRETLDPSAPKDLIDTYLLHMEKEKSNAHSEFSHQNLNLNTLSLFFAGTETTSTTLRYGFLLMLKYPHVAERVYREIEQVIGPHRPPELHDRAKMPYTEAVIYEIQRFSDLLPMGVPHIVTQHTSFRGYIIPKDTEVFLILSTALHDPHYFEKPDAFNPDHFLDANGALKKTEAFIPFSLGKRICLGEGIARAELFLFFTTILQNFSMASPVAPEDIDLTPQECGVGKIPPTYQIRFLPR

SMILES: CNC(=O)c1cc2c(Oc3ccc(NC(=O)C4(C(=O)Nc5ccc(F)cc5)CC4)cc3)ccnc2cc1OC [Compound 1, 1-N′-(4-Fluorophenvl)-1-N-[4-[7-methoxy-6-(methylcarbamovl)quinolin-4-yl]oxyphenyl]cyclopropane-1,1-dicarboxamide]
- TGI (%) (MDA-MB-231; 3 mg/kg qd × 14 oral, p-value 0.0001): 73.6%
- TGI (%) (MDA-MB-231; 10 mg/kg qd × 14 oral, p-value <0.0001): 78.6%
- IC50 (CYP 2B6): > 33 µM
- IC50 (CYP1A2): > 33 µM
- Ki (CYP2C19): 1.36 µM
- Ki (CYP2C8): 1.27 µM
- Ki (CYP2C9): 7.11 µM
- IC50 (CYP2D6): > 33 µM
- Ki (CYP3A4 [1]): 25.2 µM
- time-dependent inhibition (CYP3A4 [1]; testosterone as probe substrate): time-dependent inhibitor
- EC50 (CYP3A4 [2]; human, fresh primary human hepatocytes, mRNA induction, read-out: half-maximal effective concentration (EC50)): 2.98 µM
- maximal induction effect (Emax) (CYP3A4 [2]; mRNA, 0.1-100 μM): 24 fold
- genotoxicity (bacterial): negative
- genotoxicity (mammalian cell): negative
- neurobehavioral and respiratory system effects [3]: no adverse neurobehavioral effects or toxicologically significant respiratory system effects
- subjects with treatment-related Grade 3 events (advanced solid tumors; as of 14 Dec. 2020): five subjects
- treatment-related Grade 4 or Grade 5 events (advanced solid tumors; as of 14 Dec. 2020): no treatment-related Grade 4 or Grade 5 events
- tolerability (advanced solid tumors; single agent and in combination with ICI therapy): well tolerated
- preliminary clinical activity (advanced solid tumors; single agent therapy and atezolizumab combination therapy cohorts): prolonged disease stabilization and tumor regressions
- DLTs observed among completed dose levels (advanced solid tumors; single agent, one subject at 140 mg po qd, Grade 3 uncontrolled hypertension): one DLT

From patent US12673052B2, “Combinations for the treatment of cancer” (Exelixis, Inc., priority 2020, dated 2026)
